What was measured:
p53 = p53 transcriptional activity (Cignal p53 luciferase reporter) in UMSCC47 cells; assay type: cell-based, human; conditions: UMSCC47 (HPV-positive), 10 μM, 24 hours, vs control (vehicle)
Excerpt: (§1) FIG. 5A is an schematic illustration showing that CH1 has two distinct target sites. HIF1-α/p300 structures were used as guides to design helix mimetics that target site A and site B on the CH1 domain of p300. […] CH1iA (SEQ ID NO: 7) and CH1iB (SEQ ID NO: 8) were designed to mimic two helices from the C-terminal domain of HIF-1α. The peptides were locked into the helical conformation by the hydrogen bond surrogate method. FIG. 5C is a graph of p53 activity. UMSCC47 (left) and UMSCC74A (right) cells were co-transfected with a p53 Firefly luciferase reporter plasmid and a control Renilla luciferase plasmid. After 24 hours, cells were treated with control (vehicle), CH1iA (10 μM), or CH1iB (10 μM) for 24 hours. Firefly luciferase activity was normalized to Renilla luciferase activity to control for transfection efficiency. Data is normalized to control and presented as mean±SEM. *P<0.05, n=3. FIG. 5D is a western blot showing total and acetylated p53 levels. UMSCC47 (left) and UMSCC74A (right) cells were treated with control (vehicle), CH1iA (10 μM), or CH1iB (10 μM) for 24 hours. Cell lysates were immunoblotted with anti-p53 or anti-acetylated[K382]-p53 antibody. FIG. 5E is a pair of graphs of p300, p53, p21, miR-34a, and miR-200c expression. UMSCC47 (top panel) and UMSCC74A (bottom panel) cells were treated with control (vehicle), CH1iA (10 μM), or CH1iB (10 μM) for 24 hours. mRNA expression was determined using qPCR with validated TaqMan assays. Data is normalized to control cells and presented as mean±SEM. *P<0.01, control vs. CH1iB, n=3. FIG. 5F is a western blot showing HPV16 E6-p300 association. UMSCC47 cells were treated with control (vehicle), CH1iA (10 μM), or CH1iB (10 μM) for 24 hours. Cell lysates were extracted, immunoprecipitated with anti-p300 antibody, and immunoblotted with anti-E6 antibody. Cell lysates were immunoblotted with anti-E6 or anti-p300 antibody for input control. FIG. 5G is a set of graphs of cell proliferation. UMSCC47 (top left panel), UMSCC74A (top right panel), and IMR90 (human normal fibroblasts) (bottom panel) cells were treated with control (vehicle), CH1iA (10 μM), CH1iB (10 μM), cis-platinum (10 μM), CH1iA (10 μM) and cis-platinum (10 μM), or CH1iB (10 μM) and cis-platinum (10 μM) for 24, 48, or 72 hours. Data is normalized to Day 0 and presented as mean±SEM. *P<0.01, control vs. CH1iB or cis-platinum, **P<0.01 CH1iB or cis-platinum vs. CH1iB and cis-platinum, n=6.
FIG. 6A is a western blot showing total and acetylated p53 levels. […] UMSCC47 cells were treated with control (vehicle), CH1iB (10 μM), cis-platinum (10 μM), or CH1iB (10 μM) and cis-platinum (10 μM) for 24 hours. mRNA expression was determined using qPCR with validated TaqMan assays. […]

UMSCC47 cells = test: Cell proliferation (MTT) in UMSCC47 cells; assay type: cell-based, human
Excerpt: as §1
FIG. 7A is a graph of p53 transcriptional activity. UMSCC47 cells were co-transfected with a p53 Firefly luciferase reporter plasmid and a control Renilla luciferase plasmid. After 24 hours, cells were treated with control (vehicle) or CH1iB-mut (10 μM) for 24 hours. Firefly luciferase activity was normalized to Renilla luciferase activity to control for transfection efficiency. Data is presented as mean±SEM. *P<0.05, n=5. FIG. 7B is a graph of cell proliferation. UMSCC47 cells were treated with control (vehicle), CH1iB-mut (10 μM), cis-platinum (10 μM), or CH1iB-mut (10 μM) and cis-platinum (10 μM) for 24 or 48 hours. Data is normalized to Day 0 and presented as mean±SEM. *P<0.01, control or CH1iB-mut vs. cis-platinum or cis-platinum+CH1iB-mut, n=6.
Cell proliferation was assessed using the MTT reagent (Roche Molecular Biochemicals, Nutley, N.J.) to detect metabolic active cells. Absorbance was measured at 570 nm in the Spectra Max 190 ELISA reader (Molecular Devices, Sunnyvale, Calif.) after overnight incubation. […]

XELA*RAADQ-NH2 (ELXRAADQ; HBS: 4-pentenoic acid, N-allylalanine; C-terminal amide; CH1iB-MUT)
p53 activity increase (p53): 14% | effect on anti-proliferative efficacy of cis-platinum (combination) (UMSCC47 cells; UMSCC47, 10 μM with cis-platinum 10 μM): no effect | cell proliferation, single-agent (UMSCC47 cells; UMSCC47, 10 μM, 24-72 hours): no effect

Reference: US9605026B2, “Hydrogen-bond surrogate peptides and peptidomimetics for p53 reactivation” (New York University, priority 2013, dated 2017)
